As usually defined, the IC50 is the midpoint of a concentration-inhibition curve.

Data on 40 compounds can be found in PubChem BioAssay AID1985 (Southern Research Specialized Biocontainment Screening …, 2009).

This assay concerns S. Typhi PhoP-promoter GFP reporter, fluorescence, 4 h. Nature of the assay: modified counter assay using GFP fluorescence, PhoP regulon inhibitor project, dose response (AID 1985).

As to `Nc1ncn([C@@H]2O[C@H](CO)[C@@H](O)[C@H]2O)c(=O)n1`, the IC50 is 11.2 µM.
On to `O=C(CSC1=NC(=O)C(c2ccccc2)C(=O)N1)Nc1cccc(Cl)c1` (stereo not given), for which the IC50 was 20.6 µM.
On to `CCN1CCCC1CNC(=O)c1cc2cc(F)ccc2[nH]1` (stereo not given), for which the half-maximal inhibitory concentration (IC50) was 91 µM.
In the case of `O=C(CC(=O)c1cc(Cl)ccc1O)c1ccccc1`, the IC50 is 128 µM.
In the case of `O=[N+]([O-])c1cc(CN2CCN(c3cccc(C(F)(F)F)c3)CC2)c2cccnc2c1O`, the IC50 was 34.6 µM.
In the case of `O=C(CNCCC1=CCCCC1)Nc1ccc(N2CCCCCC2)cc1`, the IC50 was 54.2 µM.
For the compound `N=c1n(Cc2ccc(Cl)cc2)c2ccccc2n1CC(O)COc1ccccc1` (stereo not given), the IC50 is 66.8 µM.
Then `COc1ccc(/C=C/c2cc(-c3ccc(C)cc3)o[n+]2C)cc1`, with 100 µM.
Turning to `C=CC1=C(C(=O)O)N2C(=O)[C@@H](NC(=O)/C(=N\O)c3csc(N)n3)[C@H]2SC1` (stereo in doubt), the IC50 is 34.6 µM.
On to `O=C(N/N=C/c1ccccc1O)C1SCCCS1`, for which the IC50 was 82.7 µM.
As to `O=C(Nc1nnc(-c2ccccn2)o1)c1cccc(Cl)c1`, the 50% inhibitory concentration (IC50) was 107 µM.
On to `CCc1ccc2c(c1)Sc1ccccc1CC2N1CCN(C)CC1` (stereo not given), for which the IC50 was 76.8 µM.
The figure for `O=[N+]([O-])c1ccc(O)c(/C=N/Nc2ccccn2)c1` is 15.2 µM.
Turning to `c1ccc(-c2nc3ccccc3[nH]2)cc1`, the IC50 is 75 µM.
Regarding `CCCNC(=O)c1cn(CC)c2cc(N3CCN(C)CC3)c(F)cc2c1=O`, the IC50 was 28 µM.
On to `CCCCCCCCCCCCCCCC[n+]1ccc(C(N)=O)cc1`, for which the IC50 was 15.4 µM.
With `CN1CCN(CC(=O)N2CCn3c4c(c5cc(C6CCCCC6)ccc53)CCCC42)CC1` (stereo not given), the IC50 is 76.5 µM.
Then `CO[C@@]1(NC(=O)Cc2cccs2)C(=O)N2C(C(=O)O)=C(COC(N)=O)CS[C@@H]21`, with 40.5 µM; and `CN(C)CC/C=C1/c2ccccc2Sc2ccc(Cl)cc21`, with 86.2 µM.
`CC[n+]1c(/C=C/N(C)c2ccccc2)n(-c2ccccc2)c2ccc(-c3nc4ccccc4s3)cc21`: the IC50 is 8.97 µM.
Consider `Clc1ccc(OCCCNCc2ccccc2)c2ccccc12`, for which the IC50 is 33.8 µM.
The figure for `OC(CNCc1ccco1)Cn1c2ccc(Br)cc2c2cc(Br)ccc21` (stereo not given) is 28 µM.
In the case of `Nc1ncncc1-c1ccc([N+](=O)[O-])cc1`, the IC50 is 67.4 µM.
Regarding `Oc1ccc(C[C@@H]2CNCCN2CCC23CC4CC(CC(C4)C2)C3)cc1`, the IC50 is 78.9 µM.
For the compound `C/C(=N\NC(=O)c1ccccc1O)c1cccs1`, the IC50 was 89.3 µM.
As for `Cc1ccc(S(=O)(=O)CCC(=O)c2ccc(O)cc2O)cc1`, the IC50 is 69.1 µM.
With `COc1c(N2CCN(C(=S)Nc3ccc(F)cc3)C(C)C2)c(F)cc2c(=O)c(C(=O)O)cn(C3CC3)c12` (stereo not given), the IC50 was 0.581 µM.
The figure for `CCCCCCCCCCCCCCCC[n+]1ccc(/C=N/O)cc1` is 34.2 µM; for `CNCCCCOc1ccc(C(C)(C)C)cc1Cl` it is 61 µM.
Turning to `Cc1nc2c(=O)n(C)c(=O)nc-2n(C)n1`, the IC50 was 0.781 µM.
Regarding `O=C(Cc1ccc([N+](=O)[O-])cc1)N/N=C/c1ccc([N+](=O)[O-])o1`, the IC50 is 13.1 µM.
For the compound `O=c1c2ccccc2nc(N/N=C/c2c(O)ccc3ccccc23)n1O`, the half-maximal inhibitory concentration (IC50) is 23 µM.
Regarding `Cc1cc(OCCCCCNCCO)cc(C)c1Cl`, the IC50 was 147 µM.
With `OCCNc1nc(Nc2ccccc2)nc2ccccc12`, the IC50 was 35.2 µM.
With `N=C(N)c1ccc(/C=C/c2ccc(C(=N)N)cc2O)cc1`, the half-inhibitory concentration (IC50) was 16.2 µM.
For `NC1=NC[C@@H](Cc2ccc(O)cc2)N1CCc1cc(C(F)(F)F)cc(C(F)(F)F)c1`, the IC50 is 106 µM.
As to `Cc1ccc2oc(=O)c(/C=C(\O)c3ccccc3)nc2c1`, the 50% inhibitory concentration (IC50) was 46.7 µM.
Then `C[C@H]1O[C@@H](n2cc(F)c(=O)[nH]c2=O)[C@H](O)[C@@H]1O`, with 13.2 µM; and `Fc1ccc(Nc2c3c(nc4ccccc24)CCC3)cc1`, with 85 µM; and `CCCCCCCC(=O)N/N=C/c1ccc([N+](=O)[O-])o1`, with 30.2 µM.
